The results in this text go back to patent publication US12384770B2, “Heterocyclic compound” (Takeda Pharmaceutical Company Limited, priority 2019, dated 2025).

One assay addresses T1, HDAC6 enzyme (Homo sapiens, UniProt Q9UBN7).
T1 construct: HDAC6 enzyme prepared by transducing full length HDAC6 gene into Sf-9 insect cells; GST; purchased SignalChem; host or cells: Sf-9 insect cells
T1 sequence (Q9UBN7 1-1215): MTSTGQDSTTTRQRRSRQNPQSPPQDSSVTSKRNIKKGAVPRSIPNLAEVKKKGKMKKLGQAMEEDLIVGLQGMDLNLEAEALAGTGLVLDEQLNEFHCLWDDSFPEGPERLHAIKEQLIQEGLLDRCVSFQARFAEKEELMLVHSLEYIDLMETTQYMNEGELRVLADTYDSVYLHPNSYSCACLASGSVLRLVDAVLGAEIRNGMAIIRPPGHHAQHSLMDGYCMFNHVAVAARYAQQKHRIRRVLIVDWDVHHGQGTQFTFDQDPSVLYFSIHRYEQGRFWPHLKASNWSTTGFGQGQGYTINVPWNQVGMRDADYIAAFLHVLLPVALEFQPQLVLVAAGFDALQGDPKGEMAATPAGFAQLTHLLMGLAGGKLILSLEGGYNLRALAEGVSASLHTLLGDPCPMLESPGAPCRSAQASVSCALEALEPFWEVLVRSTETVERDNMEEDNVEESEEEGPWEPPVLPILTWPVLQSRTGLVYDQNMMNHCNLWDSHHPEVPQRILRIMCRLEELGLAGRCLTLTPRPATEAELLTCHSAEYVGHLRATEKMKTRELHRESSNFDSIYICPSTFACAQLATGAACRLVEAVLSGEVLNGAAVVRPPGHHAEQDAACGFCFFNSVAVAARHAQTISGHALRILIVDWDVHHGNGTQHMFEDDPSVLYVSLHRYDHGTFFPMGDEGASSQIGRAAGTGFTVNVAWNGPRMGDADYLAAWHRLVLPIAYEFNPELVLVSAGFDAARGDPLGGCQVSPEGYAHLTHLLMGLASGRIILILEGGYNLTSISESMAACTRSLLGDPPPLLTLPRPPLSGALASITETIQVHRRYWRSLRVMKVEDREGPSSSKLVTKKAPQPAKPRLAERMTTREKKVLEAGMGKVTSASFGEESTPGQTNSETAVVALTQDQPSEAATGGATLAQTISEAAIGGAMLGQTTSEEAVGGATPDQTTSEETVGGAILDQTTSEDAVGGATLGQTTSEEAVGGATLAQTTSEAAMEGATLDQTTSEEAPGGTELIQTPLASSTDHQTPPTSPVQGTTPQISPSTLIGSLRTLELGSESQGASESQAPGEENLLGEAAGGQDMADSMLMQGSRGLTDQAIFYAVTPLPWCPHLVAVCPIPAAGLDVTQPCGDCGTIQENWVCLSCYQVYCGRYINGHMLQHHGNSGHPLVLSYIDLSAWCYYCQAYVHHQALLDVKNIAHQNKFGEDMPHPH
Briefly: HDAC6 enzyme inhibitory assay (HDAC-Glo I/II Assay kit). Particulars: wells without enzyme = 100% inhibition. The class given is biochemical. A digest of the protocol: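 Full-length GST-purified HDAC6 from Sf-9 cells preincubated with compound 60 min at room temperature in Tris-HCl pH 7.5 buffer with MgCl2, KCl, NaCl, glutathione, Tween-20. Substrate-developer reaction 20 min, luminescence read; no-enzyme wells set as 100% inhibition.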
On to `O=C1c2cc(-c3nnc(C(F)F)o3)ccc2CN1[C@H](c1ccccn1)[C@@H](O)c1ccccc1` (single isomer, unassigned) [Example 103, 6-[5-(difluoromethyl)-1,3,4-oxadiazol-2-yl]-2-[(1R*,2S*)-2-hydroxy-2-phenyl-1-(pyridin-2-yl)ethyl]-2,3-dihydro-1H-isoindol-1-one], for which the “HDAC6 inhibitory rate (%) (10 μM)” value was determined as 100%.

The assay is the same for the next values; noted with them: wells without enzyme = 100% inhibition, 10 µM.
As to `O=C1c2cc(-c3nnc(C(F)F)o3)ccc2CN1[C@H](c1cccc(F)n1)[C@@H](O)c1cccc(F)n1` (single isomer, unassigned) [Example 118, 2-[(1R*,2R*)-1,2-bis(6-fluoropyridin-2-yl)-2-hydroxyethyl]-6-[5-(difluoromethyl)-1,3,4-oxadiazol-2-yl]-2,3-dihydro-1H-isoindol-1-one], the “HDAC6 inhibitory rate (%) (10 μM)” value was 102%.

Consider `O=C1c2cc(-c3nnc(C(F)F)o3)ccc2CN1[C@H](C1CC1)[C@@H](O)c1ncccn1` (single isomer, unassigned) [Example 74, 2-[(1R*,2R*)-1-cyclopropyl-2-hydroxy-2-(pyrimidin-2-yl)ethyl]-6-[5-(difluoromethyl)-1,3,4-oxadiazol-2-yl]-2,3-dihydro-1H-isoindol-1-one], for which the “HDAC6 inhibitory rate (%) (10 μM)” value worked out at 96%.

As to `O=C1c2cc(-c3nnc(C(F)F)o3)ccc2CN1[C@H](c1ncccn1)[C@@H](O)c1cccc(F)c1` (single isomer, unassigned) [Example 69, 6-[5-(difluoromethyl)-1,3,4-oxadiazol-2-yl]-2-[(1R*,2S*)-2-(3-fluorophenyl)-2-hydroxy-1-(pyrimidin-2-yl)ethyl]-2,3-dihydro-1H-isoindol-1-one], the “HDAC6 inhibitory rate (%) (10 μM)” value is 100%.

`O=C1c2cc(-c3nnc(C(F)F)o3)ccc2CN1[C@H](c1ccccn1)[C@@H](O)c1cc(Cl)ccn1` (single isomer, unassigned) [Example 124, 2-[(1R*,2R*)-2-(4-chloropyridin-2-yl)-2-hydroxy-1-(pyridin-2-yl)ethyl]-6-[5-(difluoromethyl)-1,3,4-oxadiazol-2-yl]-2,3-dihydro-1H-isoindol-1-one]: the “HDAC6 inhibitory rate (%) (10 μM)” value is recorded as 100%.

On to `O=C1c2cc(-c3nnc(C(F)F)o3)ccc2CN1[C@H](c1ccccn1)[C@@H](O)c1cccc(Cl)n1` (single isomer, unassigned) [Example 115, 2-[(1R*,2R*)-2-(6-chloropyridin-2-yl)-2-hydroxy-1-(pyridin-2-yl)ethyl]-6-[5-(difluoromethyl)-1,3,4-oxadiazol-2-yl]-2,3-dihydro-1H-isoindol-1-one], for which the “HDAC6 inhibitory rate (%) (10 μM)” value was determined as 100%.

The same assay, now with this note: wells without enzyme = 100% inhibition, read-out: HDAC6 inhibitory rate (%) (10 μM).
Take `Cn1cc([C@H]([C@@H](O)c2ccc(F)cc2)N2Cc3ccc(-c4nnc(C(F)F)o4)cc3C2=O)cn1` (racemic) [Example 43, 6-[5-(difluoromethyl)-1,3,4-oxadiazol-2-yl]-2-[(1RS,2SR)-2-(4-fluorophenyl)-2-hydroxy-1-(1-methyl-1H-pyrazol-4-yl)ethyl]-2,3-dihydro-1H-isoindol-1-one]: the inhibition at 10 µM turned out to be 100%.

`O=C1c2cc(-c3nnc(C(F)F)o3)ccc2CN1[C@H](c1ccc(F)cc1F)[C@@H](O)c1ccccn1` (racemic) [Example 31, 6-[5-(difluoromethyl)-1,3,4-oxadiazol-2-yl]-2-[(1RS,2RS)-1-(2,4-difluorophenyl)-2-hydroxy-2-(pyridin-2-yl)ethyl]-2,3-dihydro-1H-isoindol-1-one]: the inhibition at 10 µM stood at 97%.

On to `O=C1c2cc(-c3nnc(C(F)F)o3)ccc2CN1[C@H](C1CC1)[C@@H](O)c1cccc(F)n1` (single isomer, unassigned) [Example 79, 2-[(1R*,2R*)-1-cyclopropyl-2-(6-fluoropyridin-2-yl)-2-hydroxyethyl]-6-[5-(difluoromethyl)-1,3,4-oxadiazol-2-yl]-2,3-dihydro-1H-isoindol-1-one], for which the inhibition at 10 µM was 99%.

`O=C1c2cc(-c3nnc(C(F)F)o3)ccc2CN1[C@H](c1ccccn1)[C@H](O)c1ccc(F)cc1` (racemic) [Example 141, 6-[5-(difluoromethyl)-1,3,4-oxadiazol-2-yl]-2-[(1RS,2RS)-2-(4-fluorophenyl)-2-hydroxy-1-(pyridin-2-yl)ethyl]-2,3-dihydro-1H-isoindol-1-one]: the inhibition at 10 µM turned out to be 99%.

`O=C1c2cc(-c3nnc(C(F)F)o3)ccc2CN1[C@H](c1ccccc1F)[C@@H](O)c1ccc(F)cc1` (racemic) [Example 28, 6-[5-(difluoromethyl)-1,3,4-oxadiazol-2-yl]-2-[(1RS,2SR)-1-(2-fluorophenyl)-2-(4-fluorophenyl)-2-hydroxyethyl]-2,3-dihydro-1H-isoindol-1-one]: the inhibition at 10 µM is 99%.

Take `O=C1c2cc(-c3nnc(C(F)F)o3)ccc2CN1[C@H](c1ccccc1C(F)(F)F)[C@@H](O)c1ccccn1` (racemic) [Example 39, 6-[5-(difluoromethyl)-1,3,4-oxadiazol-2-yl]-2-{(1RS,2RS)-2-hydroxy-2-(pyridin-2-yl)-1-[2-(trifluoromethyl)phenyl]ethyl}-2,3-dihydro-1H-isoindol-1-one]: the inhibition at 10 µM worked out at 101%.

Regarding `O=C1c2cc(-c3nnc(C(F)F)o3)ccc2CN1[C@H](c1ccccn1)[C@@H](O)c1cccc(Cl)n1` (single isomer, unassigned) [Example 114, 2-[(1R*,2R*)-2-(6-chloropyridin-2-yl)-2-hydroxy-1-(pyridin-2-yl)ethyl]-6-[5-(difluoromethyl)-1,3,4-oxadiazol-2-yl]-2,3-dihydro-1H-isoindol-1-one], the inhibition at 10 µM was 99%.

On to `O=C1c2cc(-c3nnc(C(F)F)o3)ccc2CN1[C@H](C1CCC(F)(F)CC1)[C@@H](O)c1ccc(F)nc1` (racemic) [Example 82, 2-[(1RS,2SR)-1-(4,4-difluoro-cyclohexyl)-2-(6-fluoropyridin-3-yl)-2-hydroxyethyl]-6-[5-(difluoromethyl)-1,3,4-oxadiazol-2-yl]-2,3-dihydro-1H-isoindol-1-one], for which the inhibition at 10 µM was determined as 100%.

For `O=C1c2cc(-c3nnc(C(F)F)o3)ccc2CN1[C@H](c1ncccn1)[C@@H](O)c1cccc(F)c1` (single isomer, unassigned) [Example 68, 6-[5-(difluoromethyl)-1,3,4-oxadiazol-2-yl]-2-[(1R*,2S*)-2-(3-fluorophenyl)-2-hydroxy-1-(pyrimidin-2-yl)ethyl]-2,3-dihydro-1H-isoindol-1-one], the inhibition at 10 µM was 101%.

Consider `O=C1c2cc(-c3nnc(C(F)F)o3)ccc2CN1[C@H](c1cccc(F)n1)[C@@H](O)c1ccc(F)cn1` (single isomer, unassigned) [Example 126, 6-[5-(difluoromethyl)-1,3,4-oxadiazol-2-yl]-2-[(1R*,2R*)-2-(5-fluoropyridin-2-yl)-1-(6-fluoropyridin-2-yl)-2-hydroxyethyl]-2,3-dihydro-1H-isoindol-1-one], for which the inhibition at 10 µM is 101%.

As for `O=C1c2cc(-c3nnc(C(F)F)o3)ccc2CN1[C@H](c1cnccn1)[C@@H](O)c1ccc(Cl)cc1` (single isomer, unassigned) [Example 96, 2-[(1R*,2S*)-2-(4-chlorophenyl)-2-hydroxy-1-(pyrazin-2-yl)ethyl]-6-[5-(difluoromethyl)-1,3,4-oxadiazol-2-yl]-2,3-dihydro-1H-isoindol-1-one], the inhibition at 10 µM was 100%.

In the case of `O=C1c2cc(-c3nnc(C(F)F)o3)ccc2CN1[C@H](C1CCOCC1)[C@H](O)c1cccc(F)c1` [Example 149, 6-[5-(difluoromethyl)-1,3,4-oxadiazol-2-yl]-2-[(1R,2R)-2-(3-fluorophenyl)-2-hydroxy-1-(oxan-4-yl)ethyl]-2,3-dihydro-1H-isoindol-1-one], the inhibition at 10 µM stood at 100%.

For `O=C1c2cc(-c3nnc(C(F)F)o3)ccc2CN1[C@H](c1cccc(F)n1)[C@@H](O)c1cccc(F)c1` (single isomer, unassigned) [Example 89, 6-[5-(difluoromethyl)-1,3,4-oxadiazol-2-yl]-2-[(1R*,2S*)-2-(3-fluorophenyl)-1-(6-fluoropyridin-2-yl)-2-hydroxyethyl]-2,3-dihydro-1H-isoindol-1-one], the inhibition at 10 µM worked out at 100%.
